{
  "source": "patent US20150299764A1",
  "about": "“IMMOBILISED CYCLIN-DEPENDENT KINASE 4 FUSION PROTEINS AND USES THEREOF” (UNIVERSITE LIBRE DE BRUXELLES, priority 2012, published 2015)",
  "key": {"MCF7 cells": {"tested_on": "MCF7 cells", "assay": "BrdU incorporation (DNA synthesis) in quiescent MCF7 cells", "type": "cell-based", "conditions": "fulvestrant 10 nM during the last 24 h of the incubation without serum and insulin, results not shown", "procedure": "MCF7 cells (ATCC HTB-22) were routinely cultivated in Dulbecco's Modified Eagle Medium (DMEM) comprising 5% serum, 6 ng/ml insulin, 0.1 mM non essential amino acids (NEAA, GIBCO), 1 mM Sodium pyruvate, 50 U/ml Penicillin and 50 μg/ml Streptomycin. The cells were rendered quiescent by incubating them for three days in phenol-free DMEM without serum and insulin, but supplemented with 0.1 mM NEAA (GIBCO), 1 mM Sodium pyruvate, 50 U/ml Penicillin and 50 μg/ml Streptomycin. Cells were kept quiescent (control) or were stimulated to proliferate by adding 5% serum and 6 ng/ml insulin in the culture medium. Samples were harvested 2 h, 4 h, 6 h, 8 h, 10 h, 12 h, 16 h, and 24 h after stimulation of MCF7 cells. Bromodeoxyuridine (BrdU, 10^−4 M) and fluorodeoxyuridine (2.10^−6 M) were added to the cells for the last 24 h of culture. BrdU staining was used to record DNA synthesis. […] DNA synthesis resumed 16 h after stimulation by serum and insulin (FIG. 5, dashed line).\nWhen fulvestrant (10 nM) was added to the culture to block estrogen receptor action during the last 24 h of the incubation without serum and insulin, the proportion of cells starting DNA synthesis dropped to less than 2% (results not shown)."}, "[1]": {"target": "biotinylated Avi-tagged luciferase/EGFP fusion (pWFAvi_IBc_luc) [luciferase: P08659]", "assay": "pull-down from HEK293T extract on streptavidin-coated sepharose beads; bound luciferase activity relative to bound plus unbound"}},
  "data": [
    {"compound": "C[C@]12CC[C@@H]3c4ccc(O)cc4C[C@@H](CCCCCCCCC[S+]([O-])CCCC(F)(F)C(F)(F)F)[C@H]3[C@@H]1CC[C@@H]2O", "note": "(some centres unmarked) [fulvestrant]", "values": [
      {"measurement": "proportion of cells starting DNA synthesis", "setting": "MCF7 cells", "result": "less than 2%"}
    ]},
    {"compound": "streptavidin (from UniProt P22629 37-163)", "values": [
      {"measurement": "percent of the total luciferase activity bound", "setting": "[1]", "result": "< 40", "unit": "%"}
    ]}
  ]
}
